Structures can show the parent of a compound that is named as a salt.
target: T1, PDE2 (Bos taurus, UniProt P14099); assay: Inhibition of PDE2, radioenzymatic phosphodiesterase assay; assay type: biochemical, bovine; details: not given
T1 construct: PDE2 was prepared from bovine endothelial cells by the same methods; endogenous in cells; host or cells: bovine endothelial cells
T1 sequence (P14099 1-921): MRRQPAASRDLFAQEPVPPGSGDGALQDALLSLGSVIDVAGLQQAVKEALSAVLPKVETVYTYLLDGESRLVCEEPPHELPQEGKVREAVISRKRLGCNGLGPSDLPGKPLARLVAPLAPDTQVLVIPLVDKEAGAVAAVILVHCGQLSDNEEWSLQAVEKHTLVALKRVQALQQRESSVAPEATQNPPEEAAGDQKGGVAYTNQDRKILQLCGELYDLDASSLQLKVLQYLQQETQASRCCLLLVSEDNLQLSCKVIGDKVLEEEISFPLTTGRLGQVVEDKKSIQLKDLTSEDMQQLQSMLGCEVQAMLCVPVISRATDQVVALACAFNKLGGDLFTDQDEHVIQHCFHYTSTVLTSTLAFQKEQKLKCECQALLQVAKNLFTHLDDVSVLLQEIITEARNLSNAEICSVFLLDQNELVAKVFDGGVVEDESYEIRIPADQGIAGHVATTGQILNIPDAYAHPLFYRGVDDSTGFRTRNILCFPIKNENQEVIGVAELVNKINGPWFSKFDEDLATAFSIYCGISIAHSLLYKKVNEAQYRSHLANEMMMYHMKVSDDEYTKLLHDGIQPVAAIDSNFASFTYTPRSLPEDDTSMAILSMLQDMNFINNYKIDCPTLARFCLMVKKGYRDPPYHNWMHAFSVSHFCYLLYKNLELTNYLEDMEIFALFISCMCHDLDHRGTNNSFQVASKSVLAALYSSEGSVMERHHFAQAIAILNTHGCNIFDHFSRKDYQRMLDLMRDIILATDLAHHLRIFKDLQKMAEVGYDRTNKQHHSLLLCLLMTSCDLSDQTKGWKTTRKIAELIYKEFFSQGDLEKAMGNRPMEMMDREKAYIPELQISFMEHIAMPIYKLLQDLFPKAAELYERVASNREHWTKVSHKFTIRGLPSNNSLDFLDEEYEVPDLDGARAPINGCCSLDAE

Molecule	IC50 [µM]
COc1cc2c(cc1OC)N(C)C(=O)CN=C2c1cccc(C(C)=O)c1 [Compound 17e, 5-(3-acetylphenyl)-7,8-dimethoxy-1-methyl-1,3-dihydro-1,4-benzodiazepin-2-one]	6.7
COc1cc2c(cc1OC)N(C)C(=O)CN=C2c1cncc2ccccc12 [Compound 17f, 5-(4-isoquinolinyl)-7,8-dimethoxy-1-methyl-1,3-dihydro-1,4-benzodiazepin-2-one]	4.7
COc1cc2c(cc1OC)N(C)C(=O)CN=C2c1ccc(Cl)c(Cl)c1 [Compound 17j, 5-(3,4-dichlorophenyl)-7,8-dimethoxy-1-methyl-1,3-dihydro-1,4-benzodiazepin-2-one]	7
COc1cc2c(cc1OC)N(C)C(=O)CN=C2c1cccc(C)c1 [Compound 17k, 7,8-dimethoxy-1-methyl-5-(3-methylphenyl)-1,3-dihydro-1,4-benzodiazepin-2-one]	3.7
COc1cc2c(cc1OC)N(C)C(=O)CN=C2c1cccc(C=O)c1 [Compound 17l, 5-(3-formylphenyl)-7,8-dimethoxy-1-methyl-1,3-dihydro-1,4-benzodiazepin-2-one]	5
COc1cc2c(cc1OC)N(C)C(=O)CN=C2c1cccc(CNCc2ccccc2)c1 [Compound 17m, 5-[3-(benzylaminomethyl)phenyl]-7,8-dimethoxy-1-methyl-1,3-dihydro-2H-1,4-benzodiazepin-2-one hydrochloride]	4.8
COc1cc2c(cc1OC)N(C)C(=O)CN=C2c1ccc2c(c1)OCO2 [Compound 17o, 7,8-dimethoxy-1-methyl-5-(3,4-methylenedioxyphenyl)-1,3-dihydro-2H-1,4-benzodiazepin-2-one]	7.8
COc1cc2c(c(Br)c1OC)C(c1cccc(C#N)c1)=NCC(=O)N2C [Compound 24b, 3-(6-bromo-7,8-dimethoxy-1-methyl-2-oxo-2,3-dihydro-1H-1,4-benzodiazepin-5-yl)benzonitrile]	3.3
COc1ccc2c(c1)NC(=O)CN=C2c1cccc(C#N)c1 [Compound 28a, 3-(8-methoxy-2-oxo-2,3-dihydro-1H-1,4-benzodiazepin-5-yl)benzonitrile]	65
COc1cccc2c1C(c1cccc(C#N)c1)=NCC(=O)N2 [Compound 28b, 3-(6-methoxy-2-oxo-2,3-dihydro-1H-1,4-benzodiazepin-5-yl)benzonitrile]	88
COc1ccc2c(c1)N(C)C(=O)CN=C2c1cccc(C#N)c1 [Compound 29a, 3-(8-methoxy-1-methyl-2-oxo-2,3-dihydro-1H-1,4-benzodiazepin-5-yl)benzonitrile]	35
COC(=O)c1cccc(C2=NCC(=O)N(C)c3cc(OC)c(OC)cc32)c1 [Compound 34a, 3-(7,8-dimethoxy-1-methyl-2-oxo-2,3-dihydro-1H-1,4-benzodiazepin-5-yl)methyl benzoate]	2.6
COc1cc2c(cc1OC)N(C)C(=O)CN=C2c1cccc(C(=O)NCc2ccccc2)c1 [Compound 36b, N-benzyl-3-(7,8-dimethoxy-1-methyl-2-oxo-2,3-dihydro-1H-1,4-benzodiazepin-5-yl) benzamide]	3.1
COc1cc2c(cc1OC)N(C)C(=O)CN=C2c1cccc(C(=O)NCCCc2ccccc2)c1 [Compound 36f, 3-(7,8-dimethoxy-1-methyl-2-oxo-2,3-dihydro-1H-1,4-benzodiazepin-5-yl)-N-(3-phenylpropyl)benzamide]	2.8

same assay, conditions: 1 μM cyclic AMP; PDE2 from bovine endothelial cells; read-out: PDE2 IC50

Molecule	IC50 [µM]
Tert-butyl-3-[5-(cyanophenyl)-(7,8-dimethoxy-1-methyl-2-oxo-2,3-dihydro-1H-1,4-benzodiazepin-9-yl)phenyl]prop-2-ynylcarbamate [Compound 25c]	3.4
tert-butyl-3-[5-(cyanophenyl)-(7,8-dimethoxy-1-methyl-2-oxo-2,3-dihydro-1H-1,4-benzodiazepin-6-yl)phenyl]prop-2-ynylcarbamate [Compound 25e]	5

same assay, conditions: 10 μM test compound; PDE2 from bovine endothelial cells

Molecule	PDE2 percentage inhibition at 10 μM [%]
COc1cc2c(cc1OC)N(C)C(=O)CN=C2c1cccc(C(=O)N2CCN(Cc3ccccc3)CC2)c1 [Compound 36e, 5-{3-[(4-benzylpyperazin-1-yl)carbonyl]phenyl}7,8-dimethoxy-1-methyl-2-oxo-2,3-dihydro-1H-1,4-benzodiazepin-2-one]	27
Methyl (2E)-3-[5-(cyanophenyl)-7,8-dimethoxy-1-methyl-2-oxo-2,3-dihydro-1H-1,4-benzodiazepin-9-yl)phenyl]acrylate [Compound 25d]	2.4
[6-(3-aminoethynyl)-7,8-dimethoxy-1-methyl-2-oxo-2,3-dihydro-1H-1,4-benzodiazepin-5-yl]benzonitrile [Compound 25g]	14.5
[9-(3-aminoethynyl)-7,8-dimethoxy-1-methyl-2-oxo-2,3-dihydro-1H-1,4-benzodiazepin-5-yl]benzonitrile [Compound 25f]	0

same assay, conditions: 10 μM test compound; PDE2 from bovine endothelial cells; read-out: PDE2 percentage inhibition at 10 μM

Molecule	inhibition at 10 µM [%]
COc1cc2c(cc1OC)N(C)C(=O)CN=C2c1cccc(NC(C)=O)c1 [Compound 17n, N-[3-(7,8-dimethoxy-1-methyl-2-oxo-2,3-dihydro-1H-1,4-benzodiazepin-5-yl)phenyl]acetamide]	38
COc1cc2c(cc1OC)N(C)C(=O)CN=C2c1cccc(C(=O)O)c1 [Compound 35a, 3-(7,8-dimethoxy-1-methyl-2-oxo-2,3-dihydro-1H-1,4-benzodiazepin-5-yl)benzoic acid]	26
COc1cc2c(cc1OC)N(C)C(=O)CN=C2c1cccc(C(=O)NC(C)C)c1 [Compound 36a, 3-(7,8-dimethoxy-1-methyl-2-oxo-2,3-dihydro-1H-1,4-benzodiazepin-5-yl)N-isopropylbenzamide]	75.9
COc1cc2c(cc1OC)N(C)C(=O)CN=C2c1cccc(C(=O)N(C)C)c1 [Compound 36d, 3-(7,8-dimethoxy-1-methyl-2-oxo-2,3-dihydro-1H-1,4-benzodiazepin-5-yl)-N,N-dimethylbenzamide]	17

same assay, conditions: read-out: PDE2 percentage inhibition at 10 μM

Molecule	inhibition at 10 µM [%]
CCCC1N=C(c2cccc(CO)c2)c2cc(OC)c(OC)cc2N(C)C1=O (stereo not shown) [Compound 17h, 7,8-dimethoxy-5-(3-hydroxymethylphenyl)-1-methyl-3-propyl-1,3-dihydro-2H-1,4-benzodiazepin-2-one]	9.2
COc1cc2c(cc1OC)N(C)C(=O)CN=C2c1cccc(N)c1 [Compound 17i, 5-(3-aminophenyl)-7,8-dimethoxy-1-methyl-1,3-dihydro-2H-1,4-benzodiazepin-2-one]	40
COc1cc2c(cc1O)C(c1cccc(C#N)c1)=NCC(=O)N2 [Compound 22b, 3-(7-hydroxy-8-methoxy-2-oxo-2,3-dihydro-1H-1,4-benzodiazepin-5-yl)benzonitrile]	3.8
COc1cc2c(c(Br)c1O)C(c1cccc(C#N)c1)=NCC(=O)N2 [Compound 23b, 3-(6-bromo-7-hydroxy-8-methoxy-2-oxo-2,3-dihydro-1H-1,4-benzodiazepin-5-yl)benzonitrile]	20.1
COc1cc2c(c(-c3ccccc3)c1OC)N(C)C(=O)CN=C2c1cccc(C#N)c1 [Compound 25a, 3-(7,8-dimethoxy-1-methyl-2-oxo-9-phenyl-2,3-dihydro-1H-1,4-benzodiazepin-5-yl)benzonitrile]	0
COc1cc2c(c(-c3ccccc3)c1OC)C(c1cccc(C#N)c1)=NCC(=O)N2C [Compound 25b, 3-(7,8-dimethoxy-1-methyl-2-oxo-6-phenyl-2,3-dihydro-1H-1,4-benzodiazepin-5-yl)benzonitrile]	22.9
COc1ccc2c(c1)NC(=O)CN=C2c1cccc(C#N)c1 [Compound 28a, 3-(8-methoxy-2-oxo-2,3-dihydro-1H-1,4-benzodiazepin-5-yl)benzonitrile]	52.5
COc1cccc2c1C(c1cccc(C#N)c1)=NCC(=O)N2 [Compound 28b, 3-(6-methoxy-2-oxo-2,3-dihydro-1H-1,4-benzodiazepin-5-yl)benzonitrile]	34.5
COc1ccc2c(c1)C(c1cccc(C#N)c1)=NCC(=O)N2 [Compound 28c, 3-(7-methoxy-2-oxo-2,3-dihydro-1H-1,4-benzodiazepin-5-yl)benzonitrile]	46.5
COc1cccc2c1C(c1ccccc1)=NCC(=O)N2 [Compound 28d, 6-methoxy-5-phenyl-1,3-dihydro-2H-1,4-benzodiazepin-2-one]	4.7
COc1ccc2c(c1)C(c1ccccc1)=NCC(=O)N2 [Compound 28e, 7-methoxy-5-phenyl-1,3-dihydro-2H-1,4-benzodiazepin-2-one]	8.8
COc1cc2c(c(Br)c1OC)NC(=O)CN=C2c1ccccc1 [Compound 28f, 9-bromo-7,8-dimethoxy-5-phenyl-1,3-dihydro-2H-1,4-benzodiazepin-2-one]	13.5
COc1cc2c(cc1OC)N(C)C(=O)CN=C2c1cccc(C(=O)NCCCCCC(N)=O)c1 [Compound 36c, N-(6-amino-6-oxohexyl)-3-(7,8-dimethoxy-1-methyl-2-oxo-2,3-dihydro-1H-1,4-benzodiazepin-5-yl)benzamide]	46

Source: US20060128695A1, “Cyclic nucleotide phosphodiesterase inhibitors, preparation and uses” (NEURO3D, priority 2002, published 2006)
